Test results: publication PMC8288134, “Synthesis, potential antitumor activity, cell cycle analysis, and multitarget mechanisms of novel hydrazones incorporating a 4-methylsulfonylbenzene scaffold: a molecular docking study” (Journal of Enzyme Inhibition and Medicinal Chemistry, 2021)
Where two headings read alike, the source gives them in different places.

How the values were obtained:
NCI-H226 = system: NCI-H226; design: method as in https://dtp.cancer.gov/dtpstandard/dwindex/index.jsp; conditions: reference drugs, ref https://dtp.cancer.gov/dtpstandard/dwindex/index.jsp; cited from earlier work
[1] = system: leukaemia tumour cell lines; conditions: cited from earlier work; for GI50: read-out: GI50 (subpanel average), reference drugs, ref https://dtp.cancer.gov/dtpstandard/dwindex/index.jsp; for CC50: read-out: LC50 (subpanel average), reference drugs, ref https://dtp.cancer.gov/dtpstandard/dwindex/index.jsp; for TGI (subpanel average): reference drugs, ref https://dtp.cancer.gov/dtpstandard/dwindex/index.jsp
SK-MEL-28 [2] = system: SK-MEL-28; design: method as in https://dtp.cancer.gov/dtpstandard/dwindex/index.jsp; conditions: reference drugs, ref https://dtp.cancer.gov/dtpstandard/dwindex/index.jsp; cited from earlier work
[3] = system: melanoma tumour cell lines; conditions: cited from earlier work; for GI50: read-out: GI50 (subpanel average), reference drugs, ref https://dtp.cancer.gov/dtpstandard/dwindex/index.jsp; for CC50: read-out: LC50 (subpanel average), reference drugs, ref https://dtp.cancer.gov/dtpstandard/dwindex/index.jsp; for TGI (subpanel average): reference drugs, ref https://dtp.cancer.gov/dtpstandard/dwindex/index.jsp
UO-31 = system: UO-31; design: method as in https://dtp.cancer.gov/dtpstandard/dwindex/index.jsp; conditions: reference drugs, ref https://dtp.cancer.gov/dtpstandard/dwindex/index.jsp; cited from earlier work
OVCAR-5 = system: OVCAR-5; design: method as in https://dtp.cancer.gov/dtpstandard/dwindex/index.jsp; conditions: reference drugs, ref https://dtp.cancer.gov/dtpstandard/dwindex/index.jsp; cited from earlier work
CCRF-CEM = system: CCRF-CEM; design: method as in https://dtp.cancer.gov/dtpstandard/dwindex/index.jsp; conditions: reference drugs, ref https://dtp.cancer.gov/dtpstandard/dwindex/index.jsp; cited from earlier work
OVCAR-8 = system: OVCAR-8; design: method as in https://dtp.cancer.gov/dtpstandard/dwindex/index.jsp; conditions: reference drugs, ref https://dtp.cancer.gov/dtpstandard/dwindex/index.jsp; cited from earlier work
UACC-62 [4] = system: UACC-62; design: method as in https://dtp.cancer.gov/dtpstandard/dwindex/index.jsp; conditions: reference drugs, ref https://dtp.cancer.gov/dtpstandard/dwindex/index.jsp; cited from earlier work
LOX IMVI = system: LOX IMVI; design: method as in https://dtp.cancer.gov/dtpstandard/dwindex/index.jsp; conditions: reference drugs, ref https://dtp.cancer.gov/dtpstandard/dwindex/index.jsp; cited from earlier work
[5] = system: ovarian cancer tumour cell lines; conditions: cited from earlier work; for GI50: read-out: GI50 (subpanel average), reference drugs, ref https://dtp.cancer.gov/dtpstandard/dwindex/index.jsp; for CC50: read-out: LC50 (subpanel average), reference drugs, ref https://dtp.cancer.gov/dtpstandard/dwindex/index.jsp; for TGI (subpanel average): reference drugs, ref https://dtp.cancer.gov/dtpstandard/dwindex/index.jsp
HCT-116 = experiment: NCI antitumor screen (SRB); type: cell-based; conditions: Homo sapiens; for inhibition at 10 µM: read-out: Growth inhibition percentage (GI%)
COX-2 = target: T1, COX-2 (Ovis aries, UniProt P79208); experiment: biochemical; conditions: mean of three determinations; read-out: IC50 COX-2 Inhibition
T1 construct: purchased Cayman Chemical 560101
T1 sequence (P79208 17-603): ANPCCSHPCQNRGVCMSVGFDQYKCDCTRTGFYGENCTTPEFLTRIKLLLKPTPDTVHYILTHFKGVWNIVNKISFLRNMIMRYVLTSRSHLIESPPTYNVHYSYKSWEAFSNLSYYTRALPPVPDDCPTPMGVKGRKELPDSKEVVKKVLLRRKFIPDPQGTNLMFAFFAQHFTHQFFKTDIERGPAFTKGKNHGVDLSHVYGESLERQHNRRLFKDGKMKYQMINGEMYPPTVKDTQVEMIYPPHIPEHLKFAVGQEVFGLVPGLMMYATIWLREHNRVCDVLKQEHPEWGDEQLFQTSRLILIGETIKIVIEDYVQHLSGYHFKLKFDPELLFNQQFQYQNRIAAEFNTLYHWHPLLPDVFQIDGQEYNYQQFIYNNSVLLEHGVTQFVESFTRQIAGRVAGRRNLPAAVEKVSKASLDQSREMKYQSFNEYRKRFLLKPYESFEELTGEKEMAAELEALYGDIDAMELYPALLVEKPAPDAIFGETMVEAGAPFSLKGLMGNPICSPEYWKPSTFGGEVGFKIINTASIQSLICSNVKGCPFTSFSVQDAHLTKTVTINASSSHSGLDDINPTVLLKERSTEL
Experimental: had been previously attached to the well. The plate was washed to remove any unbound reagents, and then Ellman’s reagent, containing the substrate of acetylcholine esterase, was added to the well. This enzymatic reaction produced a distinct yellow color that was absorbed in 410 nm. The intensity of the color, determined spectrophotometrically, was proportional to the amount of PG tracer bound to the well, which was inversely proportional to PGs present in the well during the incubation: Absorbance ∝ [Bound PG Tracer] a1/PGs. Percent inhibition was calculated by comparing the treated compound to various control incubations. The test compound […]
inhibition response curve (duplicate determinations). […]

U251 = experiment: NCI antitumor screen (SRB); type: cell-based; conditions: Homo sapiens; for inhibition at 10 µM: U-251, one dose 10 µM, read-out: Growth inhibition percentage (GI%)
SF-539 = experiment: NCI antitumor screen (SRB); type: cell-based; conditions: Homo sapiens; for inhibition at 10 µM: one dose 10 µM, read-out: Growth inhibition percentage (GI%)
HS 578 T = experiment: NCI antitumor screen (SRB); type: cell-based; conditions: Homo sapiens; for inhibition at 10 µM: one dose 10 µM, read-out: Growth inhibition percentage (GI%)
SK-MEL-28 [6] = experiment: NCI antitumor screen (SRB); type: cell-based, human; conditions: for inhibition at 10 µM: read-out: Growth inhibition percentage (GI%)
HER2 = HER2 (Homo sapiens, UniProt P04626); experiment: biochemical; conditions: read-out: IC50 HER2 Inhibition
Excerpt: (§1) In vitro luminescent EGFR tyrosine kinase assay using Kinase-Glo® MAX as a detection reagent, and In vitro HER2 tyrosine kinase assay using DP‐Glo™ reagent that measures ADP formed from a kinase reaction, this luminescent signal positively correlates with ADP amount and kinase activity. […]
(§2) 2.1.5. EGFR and Her2 assays
(§3) In vitro luminescent EGFR tyrosine kinase assay, using Kinase-Glo® MAX as a detection reagent, and In vitro HER2 tyrosine kinase assay, using DP‐Glo™ reagent that measures the adenosine diphosphate (ADP) formed from a kinase reaction, were performed; this luminescent signal positively correlates with ADP amount and kinase activity. In 17 μl of distilled water, 6 μl of Kinase assay buffer and 1 μl ATP and 1 μl PTK substrate were mixed (master mixture). In every well, mix 20 μl of the master mixture and 5 μl of Inhibitor solution (Test Inhibitor) for positive control, and use 5 μl of the same solution without inhibitor (Inhibitor buffer) as the blank solution; add 20 μl of diluted EGFR or Her2 enzyme and incubate at 30°C for 40 min. Add 50 μl of Kinase-Glo Max reagent to each well, cover the plate with aluminum foil and incubate the plate at room temperature for 15 min. Afterward, measure luminescence using the microplate reader. “Blank” value is subtracted from all readings. […]

EGFR = EGFR (Homo sapiens, UniProt P00533); experiment: biochemical; conditions: read-out: IC50 EGFR Inhibition
Excerpt: as §1, §2, §3

SF-295 = experiment: NCI antitumor screen (SRB); type: cell-based; conditions: Homo sapiens; for inhibition at 10 µM: one dose 10 µM, read-out: Growth inhibition percentage (GI%)
UACC-62 [7] = experiment: NCI antitumor screen (SRB); type: cell-based; conditions: Homo sapiens; for inhibition at 10 µM: one dose 10 µM, read-out: Growth inhibition percentage (GI%)
K-562 = experiment: NCI antitumor screen (SRB); type: cell-based; conditions: Homo sapiens
[8] = Homo sapiens, SK-MEL-28, SK-MEL-28, one dose 10 µM
[9] = K562, read-out: Growth inhibition percentage (GI%)
[10] = K562, K-562, one dose 10 µM, read-out: Growth inhibition percentage (GI%)
[11] = Homo sapiens, SK-MEL-28, one dose 10 µM
[12] = five concentrations 0.01-100 µM

Sequence of EGFR (P00533 25-1210): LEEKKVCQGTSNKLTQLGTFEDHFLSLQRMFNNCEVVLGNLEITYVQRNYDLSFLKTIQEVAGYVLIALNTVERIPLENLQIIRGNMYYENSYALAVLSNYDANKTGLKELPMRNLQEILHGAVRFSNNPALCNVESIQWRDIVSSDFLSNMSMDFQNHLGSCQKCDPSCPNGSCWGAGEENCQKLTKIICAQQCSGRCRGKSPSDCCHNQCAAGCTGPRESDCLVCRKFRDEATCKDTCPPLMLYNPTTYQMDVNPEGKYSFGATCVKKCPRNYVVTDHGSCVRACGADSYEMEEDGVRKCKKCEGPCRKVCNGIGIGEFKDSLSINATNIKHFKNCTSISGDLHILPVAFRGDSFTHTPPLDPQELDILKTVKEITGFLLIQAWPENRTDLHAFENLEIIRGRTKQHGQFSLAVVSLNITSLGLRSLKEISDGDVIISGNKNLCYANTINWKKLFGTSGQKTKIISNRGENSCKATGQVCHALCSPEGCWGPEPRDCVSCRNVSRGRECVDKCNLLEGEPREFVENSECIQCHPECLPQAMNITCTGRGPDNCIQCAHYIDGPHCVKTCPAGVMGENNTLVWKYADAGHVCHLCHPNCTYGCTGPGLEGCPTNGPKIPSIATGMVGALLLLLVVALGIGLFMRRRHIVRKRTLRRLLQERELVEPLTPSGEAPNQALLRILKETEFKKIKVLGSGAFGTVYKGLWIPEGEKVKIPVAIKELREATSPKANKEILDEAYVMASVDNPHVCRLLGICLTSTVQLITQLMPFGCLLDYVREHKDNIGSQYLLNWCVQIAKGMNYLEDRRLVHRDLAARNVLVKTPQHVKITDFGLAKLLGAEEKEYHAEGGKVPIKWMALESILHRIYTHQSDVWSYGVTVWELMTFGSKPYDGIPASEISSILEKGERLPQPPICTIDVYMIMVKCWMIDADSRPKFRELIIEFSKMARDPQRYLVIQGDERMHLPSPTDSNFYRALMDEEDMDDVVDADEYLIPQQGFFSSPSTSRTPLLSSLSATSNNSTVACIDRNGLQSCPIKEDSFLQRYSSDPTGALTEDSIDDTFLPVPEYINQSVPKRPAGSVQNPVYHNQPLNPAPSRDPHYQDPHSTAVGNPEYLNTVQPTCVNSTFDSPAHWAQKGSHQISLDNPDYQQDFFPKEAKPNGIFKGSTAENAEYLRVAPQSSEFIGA
Sequence of HER2 (P04626 23-1255): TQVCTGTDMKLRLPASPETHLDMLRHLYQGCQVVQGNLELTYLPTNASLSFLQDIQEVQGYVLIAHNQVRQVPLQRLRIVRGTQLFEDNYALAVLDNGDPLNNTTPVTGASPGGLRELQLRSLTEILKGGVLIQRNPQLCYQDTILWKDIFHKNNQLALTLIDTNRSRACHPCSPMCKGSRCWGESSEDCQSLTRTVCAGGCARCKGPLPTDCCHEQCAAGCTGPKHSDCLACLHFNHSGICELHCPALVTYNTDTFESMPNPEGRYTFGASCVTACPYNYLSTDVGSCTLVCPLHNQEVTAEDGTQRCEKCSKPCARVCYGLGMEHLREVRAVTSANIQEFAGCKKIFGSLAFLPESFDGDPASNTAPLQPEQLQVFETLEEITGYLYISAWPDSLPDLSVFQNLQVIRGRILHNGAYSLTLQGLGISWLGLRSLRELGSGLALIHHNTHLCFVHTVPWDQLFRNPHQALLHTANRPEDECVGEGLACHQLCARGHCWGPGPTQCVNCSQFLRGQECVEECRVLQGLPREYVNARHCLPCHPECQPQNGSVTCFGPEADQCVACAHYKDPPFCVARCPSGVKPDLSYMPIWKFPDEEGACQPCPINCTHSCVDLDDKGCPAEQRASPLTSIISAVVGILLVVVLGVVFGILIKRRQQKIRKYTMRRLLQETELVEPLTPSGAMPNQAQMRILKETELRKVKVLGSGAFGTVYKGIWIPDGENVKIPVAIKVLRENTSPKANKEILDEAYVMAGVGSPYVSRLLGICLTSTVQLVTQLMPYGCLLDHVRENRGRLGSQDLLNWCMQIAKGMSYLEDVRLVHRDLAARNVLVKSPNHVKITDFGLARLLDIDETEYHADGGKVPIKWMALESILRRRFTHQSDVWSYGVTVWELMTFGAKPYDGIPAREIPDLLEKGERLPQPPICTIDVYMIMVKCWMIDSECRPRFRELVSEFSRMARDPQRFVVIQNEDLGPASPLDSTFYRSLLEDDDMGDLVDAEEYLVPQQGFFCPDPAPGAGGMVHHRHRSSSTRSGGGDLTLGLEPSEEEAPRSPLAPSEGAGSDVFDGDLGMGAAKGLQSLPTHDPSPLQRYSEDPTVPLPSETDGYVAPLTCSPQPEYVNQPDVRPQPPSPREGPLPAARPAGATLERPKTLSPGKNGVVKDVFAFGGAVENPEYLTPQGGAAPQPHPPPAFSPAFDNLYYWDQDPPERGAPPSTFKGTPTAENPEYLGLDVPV

Compound	GI50 (NCI-H226) [µM]	GI50 [1] [µM]	CC50 [1] [µM]	TGI (subpanel average) [1] [µM]	GI50 (SK-MEL-28 [2]) [µM]	GI50 [3] [µM]	CC50 [3] [µM]	TGI (subpanel average) [3] [µM]	GI50 (UO-31) [µM]	GI50 (OVCAR-5) [µM]	GI50 (CCRF-CEM) [µM]	GI50 (OVCAR-8) [µM]	GI50 [5] [µM]	TGI (subpanel average) [5] [µM]	inhibition at 10 µM (HCT-116) [%]	inhibition at 10 µM (U251) [%]	inhibition at 10 µM (SF-539) [%]	inhibition at 10 µM (HS 578 T) [%]	inhibition at 10 µM (SF-295) [%]	inhibition at 10 µM (UACC-62 [7]) [%]	further results
C#Cc1cccc(Nc2ncnc3cc(OCCOC)c(OCCOC)cc23)c1 [Erlotinib, erlotinib]	39.8	27.9	> 100	96.57	50.1	23.7	93.3	77.89	1	7.94	50.1	7.94	5.52	74.41							GI50 (UACC-62 [4]): 3.16 µM; GI50 (LOX IMVI): 6.31 µM; CC50 [5]: 97.1 µM
Cc1ccc(C=NNC(=O)c2ccc(S(C)(=O)=O)cc2)cc1 [Compound 9, N'-(4-Methylbenzylidene)-4-(methylsulfonyl)benzohydrazide]															13.9	13.7	< 10	< 10	< 10	19.1	IC50 (COX-2): 2.97 ± 0.07 µM; inhibition at 10 µM (SK-MEL-28 [6]; [8]): < 10%; IC50 (HER2): 0.41 ± 0.01 µM; IC50 (EGFR): 0.77 ± 0.03 µM; inhibition at 10 µM (K-562; [9]): 44.1%
CS(=O)(=O)c1ccc(C(=O)Nc2ccc(Cl)c(-c3ccccn3)c2)c(Cl)c1 [Vismodegib, vismodegib]	50.1				39.8				31.6	100	31.6	31.6									GI50 (UACC-62 [4]): 31.6 µM; GI50 (LOX IMVI): 39.8 µM
O=c1[nH]cc(F)c(=O)[nH]1 [Compound 5-Fu, 5-fluorouracil, reference compound]		2.82	> 100	68.37		7.83	95.4	61.57					5.17	38.36	82.2	49.7	> 100	> 100	30.9	60.3	inhibition at 10 µM (K-562; [10]): 57.7%; CC50 [5]: 92.9 µM
CNC(=O)c1cc(Oc2ccc(NC(=O)Nc3ccc(Cl)c(C(F)(F)F)c3)cc2)ccn1 [Sorafenib, sorafenib]	1.99	1.91	> 100	42.12	2.51	1.87	28.6	6.29	2.51	3.16	1.99	3.16	2.89	14.43							CC50 [5]: 71.3 µM
COc1cc2ncnc(Nc3ccc(F)c(Cl)c3)c2cc1OCCCN1CCOCC1 [Gefitinib, gefitinib]	3.98	2.56		12.07	3.16	3.68		12.49	1.58	3.98	0.398		3.05	33.29							GI50 (UACC-62 [4]): 2 µM; GI50 (LOX IMVI): 3.16 µM
CS(=O)(=O)c1ccc(C(=O)NN=Cc2cccc3ccccc23)cc1 [Compound 6, 4-(Methylsulfonyl)-N'-(naphthalen-1-ylmethylene)benzohydrazide]															38.2	23.7	10.7	14.9	24	38.4	IC50 (COX-2): 36.3 ± 2.55 µM; inhibition at 10 µM (SK-MEL-28 [6]; [11]): 10.6%; IC50 (HER2): 0.35 ± 0.01 µM; IC50 (EGFR): 0.26 ± 0.09 µM; inhibition at 10 µM (K-562; [9]): 72.2%
CS(=O)(=O)c1ccc(C(=O)N/N=C/c2ccccc2O)cc1 [Compound 16]															70.9	72.2	44.7	18.5	62	83.6	IC50 (COX-2): 82.4 ± 3.61 µM; inhibition at 10 µM (SK-MEL-28 [6]; [11]): 44.1%; IC50 (HER2): 0.13 ± 0.04 µM; IC50 (EGFR): 0.2 ± 0.07 µM; inhibition at 10 µM (K-562; [9]): 59.5%
CCN(CC)c1ccc(/C=N/NC(=O)c2ccc(S(C)(=O)=O)cc2)c(O)c1 [Compound 20]															81.6	79.4	96	32	78.6	> 100	GI50 (HCT-116): 0.121 µM; IC50 (COX-2): 6.94 ± 0.41 µM; GI50 (U251; U-251, five concentrations 0.01-100 µM): 0.137 µM; GI50 (SF-539; [12]): 0.244 µM; GI50 (HS 578 T; [12]): 11.7 µM; inhibition at 10 µM (SK-MEL-28 [6]; [8]): 72.9%; GI50 (SK-MEL-28 [6]; Homo sapiens, SK-MEL-28, five concentrations 0.01-100 µM): 0.34 µM; Growth inhibition percentage (GI%) (SK-MEL-28 [6]; SK-MEL-28, one dose 10 µM): 72.8%; IC50 (HER2): 0.07 ± 0.02 µM; IC50 (EGFR): 0.19 ± 0.01 µM; GI50 (SF-295; [12]): 0.2 µM; GI50 (UACC-62 [7]; [12]): 0.234 µM; GI50 (K-562; K562, K-562, five concentrations 0.01-100 µM): 0.604 µM; inhibition at 10 µM (K-562; [10]): 87.6%
Cc1ccc(-c2cc(C(F)(F)F)nn2-c2ccc(S(N)(=O)=O)cc2)cc1 [Celecoxib, celecoxib]		12.3	67.1	29.27	15.8	22.5	64.3	38.49	15.8	19.9	12.6	19.9	17.1	34.20							GI50 (UACC-62 [4]): 15.8 µM; GI50 (LOX IMVI): 19.9 µM; CC50 [5]: 65.9 µM
